Measured values published in ChEMBL document CHEMBL2040546, “Identification of influenza endonuclease inhibitors using a novel fluorescence polarization assay” (ACS Chem Biol, 2012).

experiment: Cytotoxicity; type: functional, Canis lupus familiaris, MDCK; conditions: not given

Structure (SMILES)	CC50 [µM]
CC(NC(=O)c1nc(-c2cnccn2)[nH]c(=O)c1O)c1ccccc1 (centres undefined)	> 60
C[C@@H](NC(=O)c1nc(-c2cnccn2)[nH]c(=O)c1O)c1ccccc1	> 60
C[C@H](NC(=O)c1nc(-c2cnccn2)[nH]c(=O)c1O)c1ccccc1	> 60
O=C(NCc1ccccc1)c1nc(-c2cnccn2)[nH]c(=O)c1O	> 60
O=C(N[C@H](CO)c1ccccc1)c1nc(-c2cnccn2)[nH]c(=O)c1O	> 60
O=C(NCC1CC1)c1nc(-c2cnccn2)[nH]c(=O)c1O	> 60
Cc1ccc(CNC(=O)c2nc(-c3cnccn3)[nH]c(=O)c2O)cc1	> 60
Cc1ccc([C@@H](C)NC(=O)c2nc(-c3cnccn3)[nH]c(=O)c2O)cc1	> 60
O=C(O)c1nc(-c2cnccn2)nc(O)c1O	> 60
O=C(NC1CCCc2ccccc21)c1nc(-c2cnccn2)[nH]c(=O)c1O (centres undefined)	10.2
COc1ccc(CNC(=O)c2nc(-c3cnccn3)[nH]c(=O)c2O)cc1	> 60
C[C@@H](NC(=O)c1nc(-c2cnccn2)[nH]c(=O)c1O)C1CCCCC1	7.1
O=C(NCc1ccc(F)cc1)c1nc(-c2cnccn2)[nH]c(=O)c1O	> 60

same assay, conditions: Influenza A virus, MDCK

Structure (SMILES)	CC50 [µM]
O=C(NCCc1ccccc1)c1nc(-c2cnccn2)[nH]c(=O)c1O	> 60
